Consider three compounds from doi:10.1101/2023.09.25.559398v1 (biorxiv, 2023).

In test [1] the target is D1R (Homo sapiens, UniProt P21728). The test is described as follows: radioligand competition binding, cell homogenates.
In test [2] the target is T1, D4R (D4.4R) (Homo sapiens, UniProt P21917).
T1 sequence (P21917 1-419): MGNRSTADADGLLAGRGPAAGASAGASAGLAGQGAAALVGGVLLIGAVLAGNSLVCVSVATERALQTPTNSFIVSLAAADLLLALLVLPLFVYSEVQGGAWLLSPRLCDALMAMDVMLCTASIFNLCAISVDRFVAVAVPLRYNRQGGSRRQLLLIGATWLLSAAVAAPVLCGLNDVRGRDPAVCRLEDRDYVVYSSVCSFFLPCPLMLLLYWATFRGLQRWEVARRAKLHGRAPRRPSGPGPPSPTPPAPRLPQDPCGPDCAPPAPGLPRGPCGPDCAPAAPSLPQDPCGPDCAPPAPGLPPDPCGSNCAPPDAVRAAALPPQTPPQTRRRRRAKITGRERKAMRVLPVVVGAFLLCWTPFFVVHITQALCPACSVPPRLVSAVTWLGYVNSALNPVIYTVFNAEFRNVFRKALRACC
The test is described as follows: radioligand competition binding, cell homogenates.

Test [3] addresses T2, D2longR (Homo sapiens, UniProt P14416). The test is described as follows: radioligand competition binding, cell homogenates. For orientation: Displacement assays read how much labelled ligand stays bound in the presence of the test substance.
Test [4] deals with D5R (Homo sapiens, UniProt P21918). Nature of the test: radioligand competition binding, cell homogenates.
Chain of D5R (P21918 whole entry): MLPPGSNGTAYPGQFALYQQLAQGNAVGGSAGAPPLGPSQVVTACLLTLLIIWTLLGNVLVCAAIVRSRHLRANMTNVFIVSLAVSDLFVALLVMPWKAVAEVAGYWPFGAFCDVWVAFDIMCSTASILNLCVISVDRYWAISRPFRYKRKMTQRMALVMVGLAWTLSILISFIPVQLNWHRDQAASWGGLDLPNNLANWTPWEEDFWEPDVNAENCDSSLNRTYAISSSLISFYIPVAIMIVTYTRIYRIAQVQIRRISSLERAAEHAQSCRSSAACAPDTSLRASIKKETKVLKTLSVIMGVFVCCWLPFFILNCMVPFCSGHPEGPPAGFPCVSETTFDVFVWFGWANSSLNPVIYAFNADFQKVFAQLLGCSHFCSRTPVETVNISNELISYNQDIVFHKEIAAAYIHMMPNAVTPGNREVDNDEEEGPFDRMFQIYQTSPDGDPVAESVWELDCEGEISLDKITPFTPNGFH
The target in test [5] is D3R (Homo sapiens, UniProt P35462). The test is described as follows: radioligand competition binding, cell homogenates.
Chain of D3R (P35462 whole entry): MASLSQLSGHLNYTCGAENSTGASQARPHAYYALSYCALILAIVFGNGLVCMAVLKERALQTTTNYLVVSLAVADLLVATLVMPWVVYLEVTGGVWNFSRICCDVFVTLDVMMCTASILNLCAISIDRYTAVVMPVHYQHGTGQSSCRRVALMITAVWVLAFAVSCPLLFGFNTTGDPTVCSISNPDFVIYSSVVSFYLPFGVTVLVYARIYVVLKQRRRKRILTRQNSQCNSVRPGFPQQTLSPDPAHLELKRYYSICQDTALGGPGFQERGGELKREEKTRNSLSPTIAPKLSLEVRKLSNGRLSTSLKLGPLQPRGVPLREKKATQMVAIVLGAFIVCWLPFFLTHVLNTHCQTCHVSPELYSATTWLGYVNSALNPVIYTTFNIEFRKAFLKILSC
Test [6] concerns the target T2, D2longR. The test is described as follows: Go1-CASE BRET heterotrimer dissociation assay, antagonist mode. In kind it is cell-based.
Test [7] deals with D2longR-mNeonGreen (hD2R-mNeonGreen) (Homo sapiens, UniProt P14416). The test is described as follows: molecular brightness, confocal microscopy of intact cells. In kind it is cell-based.
Chain of D2longR-mNeonGreen (hD2R-mNeonGreen) (P14416 whole entry): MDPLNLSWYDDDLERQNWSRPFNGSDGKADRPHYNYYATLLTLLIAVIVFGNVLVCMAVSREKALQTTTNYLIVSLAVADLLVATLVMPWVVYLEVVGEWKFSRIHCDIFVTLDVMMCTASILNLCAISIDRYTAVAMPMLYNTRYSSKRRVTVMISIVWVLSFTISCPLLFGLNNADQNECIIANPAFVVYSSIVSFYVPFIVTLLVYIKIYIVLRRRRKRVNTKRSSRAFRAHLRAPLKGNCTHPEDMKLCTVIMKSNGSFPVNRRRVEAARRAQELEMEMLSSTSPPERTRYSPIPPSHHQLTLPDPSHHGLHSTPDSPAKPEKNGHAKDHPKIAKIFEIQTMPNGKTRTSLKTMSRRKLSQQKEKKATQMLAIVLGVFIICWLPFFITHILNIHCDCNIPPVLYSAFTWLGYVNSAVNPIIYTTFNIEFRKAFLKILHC
Test [8] has as its target T3, D4R (Homo sapiens, UniProt P21917).
T3 sequence (P21917 1-419): T1 sequence (P21917 1-419)
Nature of the test: Go1-CASE BRET heterotrimer dissociation assay, antagonist mode. In kind it is cell-based. On the technique in general: BRET reads energy transfer from a luciferase to a nearby fluorophore.

T2 sequence (P14416 whole entry): as above
Chain of D1R (P21728 whole entry): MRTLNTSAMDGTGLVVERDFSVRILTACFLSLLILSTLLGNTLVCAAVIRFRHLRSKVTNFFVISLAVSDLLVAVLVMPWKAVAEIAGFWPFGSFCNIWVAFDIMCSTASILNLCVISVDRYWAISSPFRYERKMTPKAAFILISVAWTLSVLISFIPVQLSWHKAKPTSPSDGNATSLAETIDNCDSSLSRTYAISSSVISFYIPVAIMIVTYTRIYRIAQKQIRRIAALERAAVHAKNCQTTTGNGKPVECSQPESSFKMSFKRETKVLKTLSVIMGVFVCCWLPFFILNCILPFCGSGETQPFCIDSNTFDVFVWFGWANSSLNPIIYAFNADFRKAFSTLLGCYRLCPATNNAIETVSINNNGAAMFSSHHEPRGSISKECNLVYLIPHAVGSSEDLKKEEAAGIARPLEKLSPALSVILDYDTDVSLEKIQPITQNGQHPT

The term Ki denotes a dissociation constant, usually derived from enzyme kinetics or from competition with a known ligand. A lower Ki goes with a stronger hold on the target. With `CN(C)c1ccc2c(-c3ccc(C(=O)NCCCOCCOCCOCCCNC(=O)CCC(=O)Nc4ccc(CCN5CN(c6ccccc6)C6(CCN(CCCC(=O)c7ccc(F)cc7)CC6)C5=O)cc4)cc3C(=O)[O-])c3ccc(=[N+](C)C)cc-3oc2c1` [compound 17, 2-(6-(Dimethylamino)-3-(dimethyliminio)-3H-xanthen-9-yl)-5-((18-((4-(2-(8-(4-(4-fluorophenyl)-4-oxobutyl)-4-oxo-1-phenyl-1,3,8-triazaspiro[4.5]decan-3-yl)ethyl)phenyl)amino)-15,18-dioxo-4,7,10-trioxa-14-azaoctadecyl)carbamoyl)benzoate dihydrotrifluoroacetate], the Ki in test [1] was 331 nM; in test [2], 29.5 nM; in test [3] it was 5.62 nM; in test [4], greater than 3160 nM; in test [5], 5.13 nM.
A word on the pKi: it is −log10 of the Ki, conventionally taken in molar units. The low end stands for a large Ki, the high end for a small Ki. In test [3] (displacement of […] [3H]N-methylspiperone, room temperature, […] min, N = […]), `COCC[N+]1=C(C=CC=C2N(CCCCCC(=O)NCCCOCCOCCOCCCNC(=O)CCC(=O)Nc3ccc(CCN4CN(c5ccccc5)C5(CCN(CCCC(=O)c6ccc(F)cc6)CC5)C4=O)cc3)c3ccc(S(=O)(=O)[O-])cc3C2(C)CCCS(=O)(=O)O)C(C)(CCCS(=O)(=O)O)c2cc(S(=O)(=O)O)ccc21` (centres unmarked) [compound 16] gave a pKi of 6.67 ± 0.07.
For orientation: Kb means the affinity of an antagonist, worked out from how it opposes an agonist. Lower therefore signals higher antagonist affinity. As usually defined, the Kd is the free concentration of one partner at which half of the binding sites on the other are occupied at equilibrium, for simple one-to-one binding. Low values mean higher affinity, high ones lower affinity. For the compound `CN(C)c1ccc2c(-c3ccc(C(=O)NCCCC(=O)Nc4ccc(CCN5CN(c6ccccc6)C6(CCN(CCCC(=O)c7ccc(F)cc7)CC6)C5=O)cc4)cc3C(=O)[O-])c3ccc(=[N+](C)C)cc-3oc2c1` [compound 20, 2-(6-(Dimethylamino)-3-(dimethyliminio)-3H-xanthen-9-yl)-5-((4-((4-(2-(8-(4-(4-fluorophenyl)-4-oxobutyl)-4-oxo-1-phenyl-1,3,8-triazaspiro[4.5]decan-3-yl)ethyl)phenyl)amino)-4-oxobutyl)carbamoyl)benzoate dihydrotrifluoracetate], the Kb in test [6] is 0.0295 nM; in test [8], 1.66 nM. Also, the Ki in test [1] was 67.6 nM; in test [2] it was 16.6 nM; in test [3], 5.75 nM; in test [4], 331 nM; in test [5] it was 2.63 nM. Binding in test [7] was characterised by a dissociation constant (Kd) of 7.59 nM.
